# Earlier results as cited in PMC8879107, “A3 Adenosine Receptor Antagonists with Nucleoside Structures and Their Anticancer Activity” (Pharmaceuticals, 2022).
# Key:
# [1] = test system: human prostate (PC3), colon (Caco-2) and hepatocyte (Hep G2) carcinomas; design: method as in PMID 29763615; settings: all three tumor cell lines PC3, Caco-2, Hep G2; cited from earlier work
# human A3AR = molecular target: T1, human A3AR (Homo sapiens, UniProt P0DMS8); design: expressed in transfected cells; host or cells: CHO cells stably expressing A3AR and the GloSensor biosensor plasmid; method as in PMID 29763615, PMID 19839592; settings: cited from earlier work
# T1 sequence (P0DMS8 1-318): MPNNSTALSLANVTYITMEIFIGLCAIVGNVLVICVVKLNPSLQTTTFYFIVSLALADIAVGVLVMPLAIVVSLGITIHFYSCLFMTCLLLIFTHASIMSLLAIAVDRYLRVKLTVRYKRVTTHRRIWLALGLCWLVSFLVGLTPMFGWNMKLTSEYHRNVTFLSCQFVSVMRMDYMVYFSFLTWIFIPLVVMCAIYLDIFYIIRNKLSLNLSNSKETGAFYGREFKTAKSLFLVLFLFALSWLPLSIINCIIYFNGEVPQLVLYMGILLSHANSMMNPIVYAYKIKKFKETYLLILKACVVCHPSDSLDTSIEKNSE
smiles,measurement,setting,value
"CNC(=O)[C@H]1O[C@@H](n2cnc3c(NC)nc(C#Cc4ccccc4)nc32)[C@H](O)[C@@H]1O [Compound 3, N^6-methyl-2-phenylethynyladenosine-5′-N-methyluronamide, reference compound]",anticancer effect (cell growth inhibition),[1],almost inactive
same,functional behaviour at A3AR,human A3AR,full A3AR agonist
